Results on 29 molecules are retold here after patent US8691818B2, “Cyclic triazo and diazo sodium channel blockers” (University Of Greenwich, priority 2008, dated 2014).

Data set [1] has as its target T1, DiHydroFolate Reductase (DHFR) (Rattus norvegicus, UniProt Q920D2).
T1 construct: from tissue; host or cells: rat liver homogenate supernatant
T1 sequence (Q920D2 1-187): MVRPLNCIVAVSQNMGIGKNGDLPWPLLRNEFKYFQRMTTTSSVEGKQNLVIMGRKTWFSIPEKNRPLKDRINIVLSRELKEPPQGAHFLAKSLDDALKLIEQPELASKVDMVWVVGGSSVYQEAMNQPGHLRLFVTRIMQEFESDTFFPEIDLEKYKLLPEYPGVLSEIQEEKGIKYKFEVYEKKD
In words: Inhibition of binding of [3H]methotrexate to rat liver homogenate supernatant. To be noted: 125 μM; read-out: [3H]mtx binding (% inhibition @ 125 μM). The method, then: All steps were carried out at 4° (or on ice). Freshly dissected rat liver was dissected into 0.25M ice-cold Sucrose and subsequently homogenised (U-turrax) in 50 mM pH 6.0 phosphate buffer (10 ml/g tissue) containing 15 mM Dithiothreitol. The resulting homogenate was centrifuged@47,500×g for 20 min and supernatant (filtered through cotton wool to remove fatty lumps) stored @ −80° before use (Rothenberg et al).
Inhibition of the binding of [^3H]methotrexate to rat liver homogenate supernatant fractions were carried out essentially as described by Arons et al, 1975.
(§1) Data are presented as mean±sem of number of experiments indicated in brackets.

The test system of a further data set is sodium channel. Nature of the data set: [14C]guanidine flux: veratrine-evoked uptake of [14C]guanidine into rat forebrain synaptosomes (primary sodium channel assay). Type of data set: biochemical. The settings on record: 30° for 2½ min. The method, then:
The screening strategy is designed to select compounds with appropriate sodium channel blocking activity and low side effect liability. To this end all compounds are processed through the primary sodium channel assay (veratrine-evoked uptake of [^14C]guanidine into rat forebrain synaptosomes) and IC50 values computed from generated concentration-effect curves.
Experiments were performed using forebrain (whole brain less cerebellum/medulla) from Male Wistar rats weighing 175-250 g. All efforts were made to reduce the number of animals used and all experiments were carried out in accordance with the UK Animals (Scientific Procedures) Act, 1986 and the European Community Council Directive of 24 Nov. 1986 (86/609/EEC). Following killing of animals by stunning and decapitation, the forebrain (whole brain less cerebellum/medulla) was rapidly dissected and transferred to a weighed tube containing ice-cold 0.25M sucrose.
Synaptosomes (heavy and light mitochondrial fraction containing synaptosomes) were prepared by transferring the forebrain (of known wet weight) to a glass Potter vessel to which 9 volumes ice-cold 0.25M sucrose had been added and homogenising, using a teflon pestle, by 8 ‘up and down strokes’ of a Braun Potter S motor driven homogeniser set to 900 rpm. The resulting homogenate was centrifuged at 1036×g at 4° for 10 min and the supernatant collected. The remaining pellet was resuspended, as above, in fresh ice-cold 0.25M sucrose and the centrifugation step repeated. The supernatant fractions were pooled and centrifuged at 40,000×g (average) at 4° for 15 min and the resulting pellet resuspended in the appropriate assay buffer at a concentration of 20-25 mg wet weight per ml appropriate assay buffer.
Both assays were carried out using 14 ml polypropylene test tubes to which a range of concentrations of the compounds under test were added.
The [^14C] guanidinine flux assay was measured using the method of Pauwels P J et al (1986) but carried out@30° for 2½ min.
as §1

Molecules are shown by their SMILES. Counter-ions that a name gives are not always drawn.

Take `Cn1nc(C2(c3ccc(Cl)cc3)CCCC2)c(N)nc1=N` (as salt: methanesulfonate) [CEN-150, 5(3)-Amino-6-{1-[1-(4-chlorophenyl)]cyclopentyl}-2,3(2,5)-dihydro-3(5)-imino-2-methyl-1,2,4-triazine methanesulfonate]: the melting point was 272 to 273 °C.
In turn, `Cn1nc(-c2cccc(-c3ccccc3)c2)c(N)nc1=N` (as salt: methanesulfonate) [CEN-161, 5(3)-Amino-6-(3-biphenyl)-2,3(2,5)-dihydro-3(5)-imino-2-methyl-1,2,4-triazine methanesulfonate] showed a melting point of 180 to 181 °C.
On the same count and under the same terms, the same measure for `CCn1nc(-c2cccc(-c3ccccc3)c2)c(N)nc1=N` (as salt: methanesulfonate) [CEN-162, 5(3)-Amino-6-(3-biphenyl)-2,3(2,5)-dihydro-3(5)-imino-2-ethyl-1,2,4-triazine methanesulfonate]: 224 to 226 °C.
In turn, `Cn1nc(-c2sc(Cl)c(Cl)c2Cl)c(N)nc1=N` (as salt: methanesulfonate) [CEN-194, 5(3)-Amino-6-{2-(3,4,5-trichloro)thienyl}-2,3(2,5)-dihydro-3(5)-imino-2-methyl-1,2,4-triazine methanesulfonate] displayed a melting point of 192 to 194 °C.
`CCn1nc(-c2sc(Cl)c(Cl)c2Cl)c(N)nc1=N` (as salt: methanesulfonate) [CEN-195, 5(3)-Amino-6-{2-(3,4,5-trichloro)thienyl}-2,3(2,5)-dihydro-3(5)-imino-2-ethyl-1,2,4-triazine methanesulfonate]: the melting point fell in the range of 202 to 204 °C.
For `CCn1nc(-c2cccc(C(F)(F)F)c2Cl)c(N)nc1=N` (as salt: methanesulphonate) [CEN-178, 5(3)-Amino-6-(2-chloro-3-trifluoromethyphenyl)-2,3(2,5)-dihydro-3(5)-imino-2-ethyl-1,2,4-triazine methanesulphonate], the melting point is 207 to 209 °C.
`CCn1nc(-c2cc(C(C)(C)C)cc(C(C)(C)C)c2)c(N)nc1=N` (as salt: methanesulphonate) [CEN-189, 5(3)-Amino-6-(3,5 bis-tert-butylphenyl)-2,3(2,5)-dihydro-3(5)-imino-2-ethyl-1,2,4-triazine methanesulphonate] displayed a melting point of 258 to 261 °C.
The same measure, in the same setting: the value for `Nc1nnc(-c2ccccc2OC(F)(F)F)c(N)n1` [CEN-56, 3,5-Diamino-6-(2-trifluoromethoxyphenyl)-1,2,4-triazine] was 148 to 150 °C.
On to `Nc1nnc(-c2cccs2)c(N)n1` [CEN-57, 3,5-Diamino-6-(2-thienyl)-1,2,4-triazine], for which the melting point is 271 to 272 °C (dec.). For the same molecule, the inhibition at 125 µM in data set [1] came out at 44%. Further, the IC50 in the data set on sodium channel is greater than 2000 µM.
For `Nc1nnc(-c2ccsc2)c(N)n1` [CEN-64, 3,5-Diamino-6-(3-thienyl)-1,2,4-triazine], the melting point was 199 to 201 °C. The inhibition at 125 µM in data set [1] was determined as 52%. This molecule registered an IC50 with sodium channel greater than 2000 µM.
`Nc1nnc(-c2ccccc2Br)c(N)n1` [CEN-68, 3,5-Diamino-6-(2-bromophenyl)-1,2,4-triazine] returned a melting point of 198 to 200 °C. Moreover, the inhibition at 125 µM in data set [1] came to 101%. The molecule also had a 50% inhibitory concentration (IC50) in the data set on sodium channel of 794 µM.
`Nc1nnc(-c2cccc(Br)c2)c(N)n1` [CEN-69, 3,5-Diamino-6-(3-bromophenyl)-1,2,4-triazine] came in with a melting point of 221 to 222 °C. Besides, the inhibition at 125 µM in data set [1] amounted to 66%. Besides, the concentration for half-maximal inhibition (IC50) with sodium channel came out at 776 µM.
With `Nc1nnc(-c2cc(Cl)sc2Cl)c(N)n1` [CEN-71, 3,5-Diamino-6-[3-(2,5 dichlorothienyl)]-1,2,4-triazine], the melting point lay in the range of 190 to 192 °C. Moreover, in data set [1], the inhibition at 125 µM is 54%. This molecule registered an IC50 in the data set on sodium channel of 513 µM.
In the case of `Nc1nnc(-c2cccc3ccccc23)c(N)n1` [CEN-72, 6-(1-Naphthyl)-1,2,4-triazine-3,5-diamine], the melting point was 194 to 196 °C. In data set [1], the inhibition at 125 µM was determined as 101%. The molecule also gave an IC50 with sodium channel of 132 µM.
The molecule `Nc1nnc(-c2ccccc2-c2ccccc2)c(N)n1` [CEN-74, 3,5-Diamino-6-(2-biphenyl)-1,2,4-triazine] gave a melting point of 222 to 224 °C. In addition, the inhibition at 125 µM in data set [1] was 99%. This molecule registered an IC50 in the data set on sodium channel of 295 µM.
Turning to `Nc1nnc(-c2ccc(-c3ccccc3)cc2)c(N)n1` [CEN-82, 3,5-Diamino-6-(4-biphenyl)-1,2,4-triazine], the melting point was in the range of 282 to 284 °C. Besides, the inhibition at 125 µM in data set [1] is -8%. In the data set with sodium channel, this molecule came in with an IC50 greater than 1000 µM.
In the same order, the values of `Nc1cnc(-c2ccc3ccccc3c2)c(N)n1` [CEN-88, 2,6-Diamino-3-(2-naphthyl)pyrazine] are 163 to 165 °C, 82% and 190 µM.
`Nc1nnc(-c2cccc3c2CCCC3)c(N)n1` [CEN-94] returned a melting point of 202 to 204 °C. Further, the inhibition at 125 µM in data set [1] is -2%. In the data set on sodium channel, the 50% inhibitory concentration (IC50) was 398 µM.
Regarding `COc1cc(-c2nnc(N)nc2N)cc(OC)c1OC` [CEN-95, 3,5-Diamino-6-(3,4,5 trimethoxyphenyl)-1,2,4-triazine], the melting point lay in the range of 309 to 311 °C. Also, in data set [1], the inhibition at 125 µM came out at 6%. In the data set on sodium channel, the 50% inhibitory concentration (IC50) is greater than 1000 µM.
For the molecule `Nc1nnc(-c2ccc3cc(Br)ccc3c2)c(N)n1` [CEN-96], the melting point was 260 to 262 °C. Also, in data set [1], the inhibition at 125 µM is 105%. The molecule also registered an IC50 in the data set on sodium channel of 110 µM.
In turn, `Nc1nnc(-c2ccccc2Oc2ccccc2)c(N)n1` [CEN-97, 3,5-Diamino-6-(2-phenoxphenyl)-1,2,4-triazine] gave a melting point of 200 to 202 °C. For the same molecule, the inhibition at 125 µM in data set [1] amounted to 101%. 363 µM corresponded to half-maximal inhibition in the data set with sodium channel (IC50).
Take `Nc1nnc(-c2ccc3c(c2)OCO3)c(N)n1` [CEN-103, 3,5-Diamino-6-(3,4-methylenedioxyphenyl)-1,2,4-triazine]: the melting point lay in the range of 217 to 218 °C. Further, the inhibition at 125 µM in data set [1] came out at 47%. The same molecule gave an IC50 with sodium channel greater than 1000 µM.
In turn, `Nc1nnc(-c2c(Cl)cccc2Cl)c(N)n1` [CEN-104, 3,5-Diamino-6-(2,6-dichlorophenyl)-1,2,4-triazine] showed a melting point of 160 to 162 °C. Moreover, the inhibition at 125 µM in data set [1] was found to be 23%. In addition, the IC50 with sodium channel was greater than 1000 µM.
Consider `Cn1nc(-c2cccc(Oc3ccccc3)c2)c(N)nc1=N` [CEN-106, 5(3)-Amino-6-(3-phenoxyphenyl)-2,3(2,5)-dihydro-3(5)-imino-2-methyl-1,2,4-triazine], for which the melting point lay in the range of 160 to 161 °C. Moreover, the inhibition at 125 µM in data set [1] is 43%. In the data set with sodium channel, this molecule returned a 50% inhibitory concentration (IC50) of 26.9 µM.
The molecule `Nc1nnc(-c2ccc(-c3ccccc3)o2)c(N)n1` [CEN-107, 3,5-Diamino-6-[2-(5-phenylfuryl)]-1,2,4-triazine] returned a melting point of 247 to 249 °C. The inhibition at 125 µM in data set [1] was 48%. In the data set with sodium channel, this molecule yielded an IC50 of 1170 µM.
Take `Nc1nnc(-c2cccc(OC(F)(F)C(F)F)c2)c(N)n1` [CEN-108, 3,5-Diamino-6-[3-(1,1,2,2-tetrafluoroethoxy)phenyl]-1,2,4-triazine]: the melting point was 199 to 200 °C. Also, the inhibition at 125 µM in data set [1] is 81%. The half-maximal inhibitory concentration (IC50) with sodium channel was found to be 813 µM.
Turning to `Nc1nnc(-c2ccc3c(c2)OCCO3)c(N)n1` [CEN-109, 3,5-Diamino-6-(3,4-ethylenedioxyphenyl)-1,2,4-triazine], the melting point is 220 to 222 °C. Moreover, the inhibition at 125 µM in data set [1] stood at 80%. In the data set with sodium channel, this molecule yielded a half-maximal inhibitory concentration (IC50) greater than 1000 µM.
As to `Nc1nnc(-c2cc3ccccc3s2)c(N)n1` [CEN-113, 3,5-Diamino-6-[2-(benzo[b]thiophenyl)]-1,2,4-triazine], the melting point fell in the range of 344 to 345 °C. Further, the inhibition at 125 µM in data set [1] stood at 65%. Moreover, in the data set on sodium channel, the half-inhibitory concentration (IC50) turned out to be 2000 µM.
The matching figures for `Nc1nnc(-c2sc3ccccc3c2Cl)c(N)n1` [CEN-114, 3,5-Diamino-6-[2-(3-chlorobenzo[b]thiophenyl)]-1,2,4-triazine]: 318 to 320 °C, 46% and 174 µM.

As usually defined, the melting point is the temperature of the solid-liquid transition. The inhibition is the change of the read-out against control, counted positive when it falls. A word on the IC50: it is the concentration at which inhibition is half-maximal. A lower IC50 goes with inhibition by little substance.
